{"source": "patent US6432972B1", "about": "“Treating allergic and inflammatory conditions” (Schering Corporation, priority 2000, dated 2002)", "key": {"[1]": {"system": "seasonal allergic rhinitis patients", "assay": "double-blinded, randomized clinical trials in seasonal allergic rhinitis patients", "assay_type": "in vivo, human", "description": "Efficacy endpoints in all the studies were Total Symptom Score, Total Nasal Symptom Score, Total Non-nasal Symptom Score, and Health Quality of Life (HQOL) analysis in efficacy trials. […] An important efficacy endpoint analyzed in the desloratadine studies is the AM NOW total symptom score. This parameter measures the total symptom relief by the patient after 24 hours before taking the next day dose."}, "[2]": {"system": "patients with SAR", "assay": "pooled randomized, parallel-group, double-blind, placebo-controlled studies; nasal congestion/stuffiness severity score in patients with SAR", "assay_type": "in vivo, human", "conditions": "for nasal congestion/stuffiness, 14-day average change in symptom severity score from baseline: baseline score 2.4", "description": "The severity (0=none, 1=mild, 2=moderate, 3=severe) of congestion/stuffiness was assessed by patients for the study duration. The 14-day average change in symptom severity score from baseline was assessed. The mean symptom severity score for nasal congestion/stuffiness was 2.4 in each treatment group at baseline, indicating patients had moderate-to-severe nasal congestion before receiving treatment."}, "[3]": {"assay": "stability of free base versus acid addition salt", "assay_type": "physicochemical", "text": "Such pharmaceutical compositions may be formulated by combining desloratadine or an equivalent amount of a pharmaceutically acceptable salt thereof with a suitable, inert, pharmaceutically acceptable carrier or diluent that may be either solid or liquid. Desloratadine may be converted into the pharmaceutically acceptable acid addition salts by admixing it with an equivalent amount of a pharmaceutically acceptable acid. Typically suitable pharmaceutically acceptable acids include the mineral acids, e.g., HNO3, H2SO4, H3PO4, HCl, HBr, organic acids, including, but not limited to, acetic, trifluoroacetic, propionic, lactic, maleic, succinic, tartaric, glucuronic and citric acids as well as alkyl or arylsulfonic acids, such as p-toluenesulfonic acid, 2-naphthalenesulfonic acid, or methanesulfonic acid. The preferred pharmaceutically acceptable salts are trifluoroacetate, tosylate, mesylate, and chloride."}}, "data": [{"smiles": "Clc1ccc2c(c1)CCc1cccnc1C2=C1CCNCC1", "note": "[Desloratadine]", "values": [{"measurement": "total symptom scores (sum of individual scores for rhinorrhea, sneezing, congestion/stuffiness, nasal itching, itchy/burning eyes, tearing, ocular redness, itchy ears/palate)", "setting": "[1]; 5 mg once daily, adult and adolescent seasonal allergic rhinitis patients", "result": "significantly reduced"}, {"measurement": "AM NOW total symptom score (symptom relief after 24 hours, before next day dose)", "setting": "[1]; 5 mg to 20 mg dosage range, p<0.05", "result": "Statistically significant (p<0.05) reductions were maintained for the full 24 hour dosing interval"}, {"measurement": "reducing nasal symptoms vs placebo", "setting": "[1]; 5 mg, p<0.01 vs placebo", "result": "significantly (p<0.01) more effective than placebo"}, {"measurement": "nasal congestion/stuffiness, 14-day average change in symptom severity score from baseline", "setting": "[2]; 5 mg PO once a day for 14 days, P=0.02 vs placebo", "result": "significantly decreased"}, {"measurement": "total symptom severity", "setting": "[2]; 5 mg or 7.5 mg PO once a day for 14 days, vs placebo", "result": "significantly decreased"}, {"measurement": "nasal congestion/stuffiness, 14-day average change in symptom severity score from baseline", "setting": "[2]; 7.5 mg PO once a day for 14 days, P=0.01 vs placebo", "result": "significantly decreased"}, {"measurement": "stability, free base compared with acid addition salt", "setting": "[3]", "result": "more stable as the free base than as an acid addition salt"}]}]}
